Test results: patent US5059607A, “Imidazolyl benzisoquinolines useful as 5-HT3 receptor antagonists” (Ono-Pharmaceutical Co., Ltd., priority 1989, dated 1991)
Counter-ions that a name gives are not always drawn. Like-named read-outs stand apart in the source and are kept apart here.

Tests used:
5-HT3 receptor = target: T1, 5-HT3 receptor (Rattus norvegicus, UniProt P35563); test: Antagonistic activity against 5-HT3 receptor in vivo in rats (suppression of 5-HT-induced reflex bradycardia); details: urethane-anesthetized male Wister rat
T1 construct: 5-HT3 receptor in vivo in rats; from tissue; host or cells: whole anesthetized male Wistar rat (in vivo; endogenous receptor, no preparation isolated)
T1 sequence (P35563 24-483): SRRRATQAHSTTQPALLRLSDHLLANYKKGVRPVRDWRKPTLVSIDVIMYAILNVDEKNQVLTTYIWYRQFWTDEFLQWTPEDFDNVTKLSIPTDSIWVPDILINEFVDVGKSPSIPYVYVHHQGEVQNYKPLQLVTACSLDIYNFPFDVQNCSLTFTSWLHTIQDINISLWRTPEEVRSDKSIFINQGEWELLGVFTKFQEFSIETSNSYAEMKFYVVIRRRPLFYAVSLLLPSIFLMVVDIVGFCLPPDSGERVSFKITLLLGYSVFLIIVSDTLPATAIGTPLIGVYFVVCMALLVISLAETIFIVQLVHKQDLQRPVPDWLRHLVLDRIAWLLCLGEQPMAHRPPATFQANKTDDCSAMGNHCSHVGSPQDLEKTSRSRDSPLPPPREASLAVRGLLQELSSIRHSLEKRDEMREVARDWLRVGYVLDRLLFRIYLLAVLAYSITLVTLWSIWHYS
Method: Male Wister rat was urethane-anesthetized and fixed. Cannulas were inserted in the carotid artery and in the thigh vein as used for the recording of blood pressure and heart beat, and for the administration of the test compounds, respectively.
Several amounts of a compound of the present invention were administered from the vein or to the duodenum. 5-HT was administered rapidly to the vein, 2 mins. after administration of the compound of the present invention.

[1] = Acute toxicity (LD50) in mice; details: mouse, in vivo
[2] = iv, 5-HT i.v. 2 mins after compound, read-out: IC50 i.v. (antagonistic activity against 5-HT3 receptor in vivo in rats)

Row | SMILES | ED50 (5-HT3 receptor; [2]) | LD50 ([1]; intravenous administration, read-out: acute toxicity (LD50), intravenous) | LD50 ([1]; oral administration, read-out: acute toxicity (LD50), oral) | ED50 (5-HT3 receptor; i.d. (to the duodenum), read-out: ID50 i.d. (antagonistic activity against 5-HT3 receptor in vivo in rats))
1 | COc1cc2ccccc2c2c(=O)n(Cc3nc[nH]c3C)ccc12.Cl [1(a), 2-(5-methylimidazol-4-ylmethyl)-5-methoxy-1,2-dihydrobenz[1,2-h]isoquinolin-1-one hydrochloride] | 2.4 µg/kg | – | – | –
2 | Cc1[nH]cnc1Cn1ccc2cc(C)c3ccccc3c2c1=O.Cl [1(d), 2-(5-methylimidazol-4-ylmethyl)-6-methyl-1,2-dihydrobenz[1,2-h]isoquinolin-1-one hydrochloride] | 0.89 µg/kg | – | – | –
3 | Cc1[nH]cnc1Cn1ccc2c(C)cc3ccccc3c2c1=O [1(e), 2-(5-methylimidazol-4-ylmethyl)-5-methyl-1,2-dihydrobenz[1,2-h]isoqionolin-1-one hydrochloride] | 1.19 µg/kg | – | – | –
4 | Cc1[nH]cnc1Cn1ccc2cc(Br)c3ccccc3c2c1=O.Cl [1(g), 2-(5-methylimidazol-4-ylmethyl)-6-bromo-1,2-dihydrobenz[1,2-h]isoquinolin-1-one hydrochloride] | 5.87 µg/kg | – | – | –
5 | Cc1[nH]cnc1Cn1ccc2c(O)cc3ccccc3c2c1=O.Cl [Example 1(f), 2-(5-methylimidazol-4-ylmethyl)-5-hydroxy-1,2-dihydrobenz[1,2-h]isoquinolin-1-one hydrochloride] | 0.62 µg/kg | – | – | –
6 | Cc1[nH]cnc1Cn1ccc2ccc3ccccc3c2c1=O.Cl [Example 1, 2-(5-methylimidazol-4-yl-methyl)-1,2-dihydrobenz[1,2-h]isoquinolin-1-one hydrochloride] | 0.29 µg/kg | 94000 µg/kg | > 800000 µg/kg | 7.5 µg/kg
